In patent US9975888B2, “Aryl linked imidazole and triazole derivatives and methods of use thereof for improving the pharmacokinetics of a drug” (MERCK SHARP & DOHME CORP., priority 2013, dated 2018):

What was measured:
Format in all cases: biochemical
[1] = biological target: T1, CYP1A2 (Homo sapiens, UniProt P05177); assay: Cocktail assay for CYPs, phenacetin O-deethylation (CYP1A2), human liver microsomes; conditions: 10 μM phenacetin, 0.1 mg/mL human liver microsomes, 10 min at 37° C.; read-out: CYP IC50 (nM) 1A2
T1 construct: 0.1 mg/mL protein human liver microsomes (BD Gentest); tissue BD Gentest; host or cells: human liver microsomes
T1 sequence (P05177 1-516): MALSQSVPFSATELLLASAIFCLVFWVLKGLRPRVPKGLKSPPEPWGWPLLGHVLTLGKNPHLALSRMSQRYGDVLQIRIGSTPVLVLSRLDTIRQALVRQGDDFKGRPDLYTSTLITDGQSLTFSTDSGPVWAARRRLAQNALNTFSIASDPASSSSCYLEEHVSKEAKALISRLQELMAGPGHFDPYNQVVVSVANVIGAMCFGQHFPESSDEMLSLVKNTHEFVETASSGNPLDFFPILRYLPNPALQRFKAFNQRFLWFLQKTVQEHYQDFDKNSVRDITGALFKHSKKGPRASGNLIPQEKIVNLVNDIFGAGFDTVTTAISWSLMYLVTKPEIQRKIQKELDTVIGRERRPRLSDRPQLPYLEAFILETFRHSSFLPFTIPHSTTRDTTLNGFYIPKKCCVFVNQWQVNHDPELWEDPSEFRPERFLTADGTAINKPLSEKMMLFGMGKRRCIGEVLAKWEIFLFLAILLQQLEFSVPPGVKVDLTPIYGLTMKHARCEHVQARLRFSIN
Procedure: (§1) Determination of IC50 in a Cocktail Assay for CYPs 1A2, 2C9, 2C19, 2D6 and 3A4:
(§2) This assay was performed in a standard 96-well plate design. IC50 values were calculated from the percent inhibition observed for each test compound at 6 concentrations (for example, 0.0032, 0.016, 0.08, 0.4, 2 and 10 μM). The incubation substrate mix contains 10 μM phenacetin (1A2), 5 μM diclofenac (2C9), 30 μM mephenytoin (2C19), 5 μM dextromethorphan (2D6) and 2 μM midazolam (3A4), 0.1 mg/mL protein human liver microsomes (BD Gentest), 1 mM NAPDH, 3.3 mM MgCl2 and 100 mM potassium phosphate buffer (pH 7.4). The production of the metabolite of each probe substrate was determined after incubation for 10 min at 37° C. Quantitation of the metabolite peak area ratio against an internal standard (tolbutamide) was determined by LC/MS/MS analysis following acetonitrile treatment of the incubations.
(§3) Samples were analyzed in the MRM mode with a SCIEX API-4000 mass spectrometer (Applied Biosystems, Foster City, Calif.), with a Shimadzu LC-20 AD pump (Shimadzu corporation, Kyoto, JP) and a CTC PAL autosampler (Agilent Technologies, Switzerland). A Phenomenex, Luna, 5 nm, 100 A, 2.00×30 mm HPLC column was used for the separation. The mobile phases were: (A) 0.1% formic acid in water and (B) 0.1% formic acid in acetonitrile. The binary gradient was as follows.
(§4) The peak area ratio of the analyte to the internal standard was used to quantify the metabolite. The values of peak area ratios in the presence of test compound were compared to those of maximum or minimum controls and were expressed as % inhibition by interpolating between the maximum and minimum peak area ratios. Incubations with no inhibitor were defined as the maxima. The following equation was used to calculate the % inhibition: [1−[(X−Low control)/(High control−Low control)]]*100 For the IC50 calculation, SigmaPlot was used to plot the mean % inhibition versus the test compound concentrations and for non-linear regression analysis of the data. Depending on the range of data points defining the inhibition curve, the data may have been fit to the 4-parameter logistic equation.

[2] = biological target: T2, CYP2C19 (Homo sapiens, UniProt P33261); assay: Cocktail assay for CYPs, mephenytoin 4′-hydroxylation (CYP2C19), human liver microsomes; conditions: 30 μM mephenytoin, 0.1 mg/mL human liver microsomes, 10 min at 37° C.; read-out: CYP IC50 (nM) 2C19
T2 construct: 0.1 mg/mL protein human liver microsomes (BD Gentest); tissue BD Gentest; host or cells: human liver microsomes
T2 sequence (P33261 whole entry): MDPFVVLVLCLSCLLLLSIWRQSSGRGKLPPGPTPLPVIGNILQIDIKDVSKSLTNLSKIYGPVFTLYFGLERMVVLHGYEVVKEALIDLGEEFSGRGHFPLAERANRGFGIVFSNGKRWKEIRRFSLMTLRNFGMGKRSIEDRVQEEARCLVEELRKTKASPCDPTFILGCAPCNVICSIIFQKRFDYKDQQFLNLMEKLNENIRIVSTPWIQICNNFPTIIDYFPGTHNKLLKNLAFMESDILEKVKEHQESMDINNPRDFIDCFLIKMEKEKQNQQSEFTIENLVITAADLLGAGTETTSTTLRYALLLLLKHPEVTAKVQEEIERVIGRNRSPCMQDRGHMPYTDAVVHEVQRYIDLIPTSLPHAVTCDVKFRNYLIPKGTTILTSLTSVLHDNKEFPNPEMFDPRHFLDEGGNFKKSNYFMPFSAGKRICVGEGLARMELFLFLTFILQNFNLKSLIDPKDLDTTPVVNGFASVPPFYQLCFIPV
Procedure: as §1
as §2, with “IC50 values were calculated from the percent inhibition observed for each test compound at 6 concentrations (for example, 0.0032, 0.016, 0.08, 0.4, 2 and 10 μM).” left out
as §3, §4

[3] = biological target: T3, CYP3A4 (Homo sapiens, UniProt P08684); assay: IC50 vs CYP3A by inhibition of lopinavir metabolism in human liver microsomes; parameters: 0.01 mg/mL protein human liver microsomes (BD Gentest); tissue BD Gentest; host or cells: human liver microsomes; conditions: 1.5 μM lopinavir, 0.01 mg/mL human liver microsomes, 8 min at 37° C.; read-out: CYP IC50 (nM) 3A4 (LPV)
Procedure: Determination of IC50 vs CYP3A by Measurement of Inhibition of Lopinavir Metabolism
This assay was performed in a standard 96-well plate design. IC50 values were calculated from the percent inhibition observed for each test compound at 6 concentrations (for example, 0.098, 0.391, 1.56, 6.25, 25 and 100 nM). The incubation substrate mix contains 1.5 μM lopinavir, 0.01 mg/mL protein human liver microsomes (BD Gentest), 1 mM NAPDH, 3.3 mM MgCl2 and 100 mM potassium phosphate buffer (pH 7.4). The production of the sum of three hydroxylated metabolites (M2: 6-hydroxy lopinavir, M3: 4-hydroxy lopinavir, M4: 4-hydroxy lopinavir (epimer of M3), Kumar et al., 1999) was determined after incubation for 8 min at 37° C. Quantitation of the metabolite peak area ratio against an internal standard (tolbutamide) was determined by LC/MS/MS analysis following acetonitrile treatment of the incubations.
as §3, with “μm,” for “nm,”
Target sequence in this assay (P08684 2-503): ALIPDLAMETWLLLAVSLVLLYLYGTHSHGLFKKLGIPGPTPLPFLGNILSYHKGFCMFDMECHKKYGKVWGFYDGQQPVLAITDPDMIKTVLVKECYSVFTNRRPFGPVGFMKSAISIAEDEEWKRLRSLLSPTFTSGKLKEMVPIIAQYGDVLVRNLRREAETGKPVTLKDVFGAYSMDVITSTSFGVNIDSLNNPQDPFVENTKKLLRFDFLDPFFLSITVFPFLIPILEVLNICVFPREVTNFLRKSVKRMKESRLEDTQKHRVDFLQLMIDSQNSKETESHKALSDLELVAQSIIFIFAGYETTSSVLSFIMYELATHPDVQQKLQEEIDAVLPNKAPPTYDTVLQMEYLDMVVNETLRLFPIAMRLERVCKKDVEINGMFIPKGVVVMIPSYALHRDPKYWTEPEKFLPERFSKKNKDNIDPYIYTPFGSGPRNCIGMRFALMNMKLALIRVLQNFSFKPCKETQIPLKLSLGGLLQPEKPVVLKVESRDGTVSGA
The peak area ratio of the analyte to the internal standard was used to quantify the metabolite. The values of peak area ratios in the presence of test compound were compared to those of maximum or minimum controls and were expressed as % inhibition by interpolating between the maximum and minimum peak area ratios. Incubations with no inhibitor were defined as the maxima and with 5 μM ketoconazole were defined as the minima.
The following equation was used to calculate the % inhibition: [1−[(X−Low control)/(High control−Low control)]]*100
For the IC50 calculation, SigmaPlot was used to plot the mean % inhibition versus the test compound concentrations and for non-linear regression analysis of the data. Depending on the range of data points defining the inhibition curve, the data may have been fit to the 4-parameter logistic equation.

[4] = biological target: T3, CYP3A4; assay: Cocktail assay for CYPs, midazolam 1′-hydroxylation (CYP3A4), human liver microsomes; parameters: 0.1 mg/mL protein human liver microsomes (BD Gentest); tissue BD Gentest; host or cells: human liver microsomes; conditions: 2 μM midazolam, 0.1 mg/mL human liver microsomes, 10 min at 37° C.; read-out: CYP IC50 (nM) 3A4 (MDZ)
Procedure: as §1, §2, §3, §4
Target sequence in this assay (P08684 whole entry): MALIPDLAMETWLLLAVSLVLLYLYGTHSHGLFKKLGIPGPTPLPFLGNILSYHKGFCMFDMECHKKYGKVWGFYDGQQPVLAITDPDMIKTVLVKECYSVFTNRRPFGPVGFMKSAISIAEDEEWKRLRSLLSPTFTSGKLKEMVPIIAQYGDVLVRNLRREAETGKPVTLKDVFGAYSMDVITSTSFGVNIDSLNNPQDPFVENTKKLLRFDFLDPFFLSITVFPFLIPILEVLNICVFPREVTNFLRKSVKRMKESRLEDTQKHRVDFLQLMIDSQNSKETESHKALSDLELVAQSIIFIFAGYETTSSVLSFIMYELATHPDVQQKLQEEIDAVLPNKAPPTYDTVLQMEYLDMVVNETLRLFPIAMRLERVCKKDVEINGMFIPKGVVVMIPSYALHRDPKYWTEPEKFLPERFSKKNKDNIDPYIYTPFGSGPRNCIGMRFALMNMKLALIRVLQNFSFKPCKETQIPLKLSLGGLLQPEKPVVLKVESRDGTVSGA

[5] = biological target: T4, CYP2C9 (Homo sapiens, UniProt P11712); assay: Cocktail assay for CYPs, diclofenac 4′-hydroxylation (CYP2C9), human liver microsomes; conditions: 5 μM diclofenac, 0.1 mg/mL human liver microsomes, 10 min at 37° C.; read-out: CYP IC50 (nM) 2C9
T4 construct: 0.1 mg/mL protein human liver microsomes (BD Gentest); tissue BD Gentest; host or cells: human liver microsomes
T4 sequence (P11712 whole entry): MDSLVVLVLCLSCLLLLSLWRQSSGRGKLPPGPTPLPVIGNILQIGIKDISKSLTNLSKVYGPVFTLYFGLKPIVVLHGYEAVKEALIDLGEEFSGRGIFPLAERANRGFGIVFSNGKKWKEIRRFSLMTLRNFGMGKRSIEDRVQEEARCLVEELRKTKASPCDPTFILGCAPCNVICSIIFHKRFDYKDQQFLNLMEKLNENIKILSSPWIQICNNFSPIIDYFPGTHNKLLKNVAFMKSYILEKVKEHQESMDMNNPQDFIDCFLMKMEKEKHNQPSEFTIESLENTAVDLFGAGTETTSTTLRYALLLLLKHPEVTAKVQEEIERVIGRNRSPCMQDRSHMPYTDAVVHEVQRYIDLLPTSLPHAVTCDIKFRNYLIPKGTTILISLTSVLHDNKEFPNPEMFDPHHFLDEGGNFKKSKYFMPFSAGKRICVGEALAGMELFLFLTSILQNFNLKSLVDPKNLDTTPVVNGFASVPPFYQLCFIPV
Procedure: as §1
as §2, with “IC50 values were calculated from the percent inhibition observed for each test compound at 6 concentrations (for example, 0.0032, 0.016, 0.08, 0.4, 2 and 10 μM).” left out
as §3, §4

[6] = biological target: T5, CYP2D6 (Homo sapiens, UniProt P10635); assay: Cocktail assay for CYPs, dextromethorphan O-demethylation (CYP2D6), human liver microsomes; conditions: 5 μM dextromethorphan, 0.1 mg/mL human liver microsomes, 10 min at 37° C.; read-out: CYP IC50 (nM) 2D6
T5 construct: 0.1 mg/mL protein human liver microsomes (BD Gentest); tissue BD Gentest; host or cells: human liver microsomes
T5 sequence (P10635 whole entry): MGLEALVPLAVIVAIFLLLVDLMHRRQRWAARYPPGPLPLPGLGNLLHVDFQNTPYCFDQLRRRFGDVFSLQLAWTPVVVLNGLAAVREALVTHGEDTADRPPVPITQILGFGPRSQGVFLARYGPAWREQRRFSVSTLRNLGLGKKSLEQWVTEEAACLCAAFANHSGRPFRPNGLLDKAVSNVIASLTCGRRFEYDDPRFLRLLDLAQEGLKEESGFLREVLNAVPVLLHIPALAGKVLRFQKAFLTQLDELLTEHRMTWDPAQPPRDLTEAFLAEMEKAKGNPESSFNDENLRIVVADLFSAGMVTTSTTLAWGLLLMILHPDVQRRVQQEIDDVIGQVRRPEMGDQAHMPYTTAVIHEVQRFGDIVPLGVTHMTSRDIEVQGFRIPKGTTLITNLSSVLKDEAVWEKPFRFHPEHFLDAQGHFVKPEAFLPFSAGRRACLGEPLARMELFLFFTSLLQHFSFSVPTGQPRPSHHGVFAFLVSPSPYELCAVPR
Procedure: as §1, §2, §3, §4

Structure (SMILES) | IC50 [1] | IC50 [2] | IC50 [3] | IC50 [4] | IC50 [5] | IC50 [6]
O=S(=O)(c1ccc(NCC(O)C2CC2)nc1)N1CCCC1c1ccccc1-c1cncn1CCc1ccc(F)cc1 (single isomer, unassigned) [Compound 34a, 1-cyclopropyl-2-((5-(((R or S)-2-(2-(1-(4-fluorophenethyl)-1H-imidazol-5-yl)phenyl)pyrrolidin-1-yl)sulfonyl)pyridin-2-yl)amino)ethanol] | 7020 nM | 2680 nM | 4.5 nM | 10.4 nM | 2620 nM | 1670 nM
O=S(=O)(c1ccc(NCC(O)C2CC2)nc1)N1CCCC1c1ccccc1-c1cncn1CCc1ccc(F)cc1 (single isomer, unassigned) [Compound 34b, 1-cyclopropyl-2-((5-(((R or S)-2-(2-(1-(4-fluorophenethyl)-1H-imidazol-5-yl)phenyl)pyrrolidin-1-yl)sulfonyl)pyridin-2-yl)amino)ethanol] | > 10000 nM | 4400 nM | 1 nM | 5.5 nM | 1900 nM | 2420 nM
O=S(=O)(c1ccc(N2CCN(CCO)CC2)nc1)N1CCCC1c1ccccc1-c1cncn1CCc1ccc(F)cc1 (single isomer, unassigned) [Compound 35a, (R or S)-2-(4-(5-((2-(2-(1-(4-fluorophenethyl)-1H-imidazol-5-yl)phenyl)pyrrolidin-1-yl)sulfonyl)pyridin-2-yl)piperazin-1-yl) ethanol] | > 10000 nM | > 10000 nM | 4.2 nM | 8.1 nM | 8600 nM | 4600 nM
O=S(=O)(c1ccc(N2CCN(CCO)CC2)nc1)N1CCCC1c1ccccc1-c1cncn1CCc1ccc(F)cc1 (single isomer, unassigned) [Compound 35b, (R or S)-2-(4-(5-((2-(2-(1-(4-fluorophenethyl)-1H-imidazol-5-yl)phenyl)pyrrolidin-1-yl)sulfonyl)pyridin-2-yl)piperazin-1-yl)ethanol] | > 10000 nM | 9720 nM | 0.9 nM | 4 nM | 6930 nM | 3060 nM
CC(C)OC(=O)N1CCCC1c1ccccc1-c1cncn1CCc1ccc(F)cc1 (single isomer, unassigned) [Compound 39a, (R or S)-isopropyl 2-(2-(1-(4-fluorophenethyl)-1H-imidazol-5-yl)phenyl) pyrrolidine-1-carboxylate] | 3840 nM | 2730 nM | 4.3 nM | 7.6 nM | 2200 nM | 9040 nM
CC(C)OC(=O)N1CCCC1c1ccccc1-c1cncn1CCc1ccc(F)cc1 (single isomer, unassigned) [Compound 39b, (R or S)-isopropyl 2-(2-(1-(4-fluorophenethyl)-1H-imidazol-5-yl)phenyl) pyrrolidine-1-carboxylate] | > 10000 nM | 4740 nM | 28.2 nM | 34.5 nM | 6380 nM | 8580 nM
O=C(c1cccnc1)N1CCCC1c1ccccc1-c1cncn1CCc1ccc(F)cc1 (single isomer, unassigned) [Compound 42a, (R or S)-(2-(2-(1-(4-fluorophenethyl)-1H-imidazol-5-yl)phenyl)pyrrolidin-1-yl) (pyridin-3-yl) methanone] | > 10000 nM | > 10000 nM | ≥ 100 nM | 64.4 nM | > 10000 nM | 1830 nM
O=C(c1cccnc1)N1CCCC1c1ccccc1-c1cncn1CCc1ccc(F)cc1 (single isomer, unassigned) [Compound 42b, (R or S)-(2-(2-(1-(4-fluorophenethyl)-1H-imidazol-5-yl)phenyl)pyrrolidin-1-yl) (pyridin-3-yl) methanone] | > 10000 nM | > 10000 nM | 9.3 nM | 13.1 nM | > 10000 nM | > 10000 nM
O=C(c1ccc(N2CCOCC2)nc1)N1CCCC1c1ccccc1-c1cncn1CCc1ccc(F)cc1 (single isomer, unassigned) [Compound 43a, (R or S)-(2-(2-(1-(4-fluorophenethyl)-1H-imidazol-5-yl)phenyl)pyrrolidin-1-yl) (6-morpholino-pyridin-3-yl) methanone] | > 10000 nM | 3270 nM | 35.2 nM | 36.3 nM | > 10000 nM | > 10000 nM
O=C(c1ccc(N2CCOCC2)nc1)N1CCCC1c1ccccc1-c1cncn1CCc1ccc(F)cc1 (single isomer, unassigned) [Compound 43b, (R or S)-(2-(2-(1-(4-fluorophenethyl)-1H-imidazol-5-yl)phenyl)pyrrolidin-1-yl) (6-morpholino-pyridin-3-yl) methanone] | 4490 nM | > 10000 nM | 2 nM | 5.8 nM | 7950 nM | 5360 nM
